“And” between values parts separate entries of the source, which are not always exact repeats. Equal values may be shown once. Values belong to the molecule of their own block, whether it stands above or below them.
Columns and labels:
Format in all cases: biochemical, bovine
PK36 = test: 32P kinase assay of purified PK36 with dephosphorylated NF-M as second substrate
Method: (§1) An alternative method for assaying the phosphorylating activity of the kinases was by ^32P assays. Radioactive assays in the same buffer system as for immunoassays contained 5 μg of HTP-purified native NF-triplet as substrate (3μg of substrate proteins other than NFs) and 150-250 cpm/pmole gamma-^32P-ATP. Incubation'times were 15 minutes at 37° C. for activities up to about 1 pmole/min/assay, since the assay responses were linear within these time intervals. Assays were stopped by cooling on ice, addition of 20 μl 25 mM EDTA and immediate transfer of the mixture onto glass filters (Whatman GF/A) wetted with 10% TCA/2% sodium pyrophosphate (PPA). The glass filters were washed twice for 1 hour and once for at least 3 hours in 10% TCA/2% PPA and finally in ethanol and were air-dried. Radioactivity was assessed by scintillation counting (Beckman LS 230) with 5 ml “Liquiscint” (National Diagnostics) for 20 minutes. Assays were routinely carried out in triplicate except for some duplicate assays in a few explicitly mentioned cases; a control assay lacking NFs was subtracted from the mean value.
(§2) The ATP dependence and inhibition of the activities of PK40 and PK36 were determined at 2 mM Mg^2+ with soluble dephosphorylated NF-M as second substrate to avoid uncertainties arising from the aggregation state of NF-triplet in suspension. The optima were at 0.5-1 mM ATP for both kinases. Apparent Km values for ATP of both kinases were estimated from Woolf-Hanes plots (Dixon and Webb, 1979) for a range of ATP concentrations sufficiently below the onset of inhibition. […] The apparent Km of PK36 was approximately 50 μM.

PK40 = molecular target: T1, PK40 (Bos taurus, UniProt P46196); test: 32P kinase assay of purified PK40 with dephosphorylated NF-M as second substrate
T1 construct: from tissue; host or cells: bovine brain
Method: as §1, §2

[1] = tested on: KSP-phosphorylating kinases; test: Immuno-dotblot assay (SMI-31/SMI-34 epitope reconstitution on dephosphorylated NF-triplet) with crude 35-45% ammonium sulfate fraction; conditions: crude enzyme
Method: The preferred method for the immunoassay for detecting KSP-phosphorylating kinases is as follows. […] After incubation at 37° C. for 18 hours, assays were diluted to 100 μl with 10 mM PBS, pH 7.2, and aliquots of 50 μl were spotted on nitrocellulose (0.22 μm, Schleicher and Schull). […] Blots were incubated with SMI mAbs for at least 2 hours. The blots were then washed five times. […] All incubations and washes were at room temperature. Incubations were sealed in plastic bags with 50 μl of solution/cm membrane. The foregoing procedure involved parameters that were optimized as follows. […] This activity was NF-specific, since the corresponding control immunoassay which lacked dephosphorylated native NF-triplet was almost negative for this fraction. […] The assays were performed with 0.5 mM Mg^2+ (unless indicated otherwise). […] Immuno-dotblot-assays were conducted to determine the optimal Mg^2+ and ATP concentrations using the SMI-31 and SMI-34 antibodies. […] Control assays were without NFs using 0.4 micrograms crude enzyme.

[2] = 5 mM Mg2+ over 1 mM ATP or 5 mM over 5 mM ATP
[3] = 5 mM Mg2+, 1 mM ATP, % of control
[4] = 5 mM Mg2+, 5 mM ATP, % of control
[5] = 2 mM Mg2+, 5 mM ATP, % of control (2 mM Mg2+, 1 mM ATP)
[6] = ATP in relatively small excess over Mg2+

T1 sequence (P46196 2-360 limits assumed): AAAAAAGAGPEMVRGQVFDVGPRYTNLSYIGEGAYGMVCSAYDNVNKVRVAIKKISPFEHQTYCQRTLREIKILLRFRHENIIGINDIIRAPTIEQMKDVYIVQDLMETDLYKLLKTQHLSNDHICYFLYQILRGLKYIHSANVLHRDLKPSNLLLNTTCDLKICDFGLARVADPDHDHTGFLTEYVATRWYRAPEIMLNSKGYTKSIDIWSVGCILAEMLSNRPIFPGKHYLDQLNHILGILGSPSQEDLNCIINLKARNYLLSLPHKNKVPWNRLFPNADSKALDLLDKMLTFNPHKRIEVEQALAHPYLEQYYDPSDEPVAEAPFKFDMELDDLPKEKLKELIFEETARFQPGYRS

- inhibition of PK36 with excess Mg2+ (PK36; [2]): significantly reduced
- relative activity [%] of PK36 (PK36; [3]): 40 ± 0.2%
- relative activity [%] of PK36 (PK36; [4]): 38 ± 2.2%
- inhibition of PK40 with excess Mg2+ (PK40; [2]): little or no inhibition
- relative activity [%] of PK40 (PK40; [3]): 107 ± 3.5%
- relative activity [%] of PK40 (PK40; [4]): 78 ± 7.1%
Structure (SMILES): [Mg+2] [Mg^2, magnesium]

Structure (SMILES): Nc1ncnc2c1ncn2[C@@H]1O[C@H](COP(=O)(O)OP(=O)(O)OP(=O)(O)O)[C@@H](O)[C@H]1O [ATP]
- ATP optimum of PK36 activity (PK36; 2 mM Mg2+): 0.5 to 1 mM
- relative activity [%] of PK36 (PK36; [5]): 14% and 14 ± 0.5%
- Km (PK36; 2 mM Mg2+, Woolf-Hanes plots, read-out: apparent Km for ATP of PK36): ~50 µM
- inhibition of PK36 by excess ATP (PK36; [6]): strongly inhibited
- ATP optimum of PK40 activity (PK40; 2 mM Mg2+): 0.5 to 1 mM
- relative activity [%] of PK40 (PK40; [5]): 7% and 7.2 ± 6.9%
- Km (PK40; 2 mM Mg2+, Woolf-Hanes plots, mean ±S.D. of three determinations, read-out: apparent Km for ATP of PK40): 93 ± 12 µM
- inhibition of PK40 by excess ATP (PK40; [6]): strongly inhibited
- effect on kinase activity ([1]; ATP 5 mM): inhibited the kinase activity

Structure (SMILES): [Cl-].[Na+] [NaCl, sodium chloride]
- relative activity [%] of PK36 (PK36; NaCl 150 mM, % of control): 40 ± 0.8%
- relative activity [%] of PK40 (PK40; NaCl 150 mM, % of control): 27 ± 1.8%
- concentration that diminished the assay response ([1]; attributed to ionic strength): greater than 20 mM

Structure (SMILES): Nc1nc2c(ncn2[C@@H]2O[C@H](COP(=O)(O)OP(=O)(O)OP(=O)(O)O)[C@@H](O)[C@H]2O)c(=O)[nH]1 [GTP]
- ability to substitute for ATP [1]: could not substitute for ATP

Structure (SMILES): [Mn+2] [Mn^2+]
- effectiveness relative to Mg2+ [1]: about twice as effective as Mg^2+
